# Assay results reported in US20260191192A1, “ANTIMICROBIAL COMPOSITIONS COMPRISING PELARGONIC ACID” (LANXESS Corporation, priority 2023, published 2026).
# Key:
# [1] = system: bacteria (Table 7 pool) and fungi; test: Challenge test, overall result (simplified bacteria pool and fungi); format: cell-based
# Experimental: (§1) The preservative activity in representative rinse-off and leave-on formulations was evaluated using a modification of the Personal Care Products Council (PCPC—formerly the Cosmetic, Toiletry and Fragrance Association) protocol (Machtiger, et al. 2001. Determination of the Efficacy of Preservation of Non-Eye Area Water Miscible Cosmetic and Toiletry Formulations: Collaborative Study. J of AOAC International. 84:1, 101-109).
# (§2) This evaluation was conducted using a four week, two or three-cycle (i.e., two-cycle for personal care and three-cycle for home care applications) microbial preservative efficacy test (i.e., challenge test) at 25° C. to determine the preservative efficacy of each treatment. Phenoxyethanol, benzyl alcohol and pelargonic acid were tested alone and in various combinations. The pelargonic acid used in the testing was purchased from Sigma-Aldrich. Combinations of phenoxyethanol or benzyl alcohol with benchmark multifunctional booster compounds were also tested for comparison. The preservative and booster ingredients were dosed and mixed thoroughly at room temperature into various formulations, specifically different personal care formulations including a lotion (leave-on, Table 1), a micellar water (rinse-off, Table 2), and a body wash formulation (rinse-off, Table 3) and different home care formulations including a manual dishwashing formulation (Table 4) and a liquid laundry detergent formulation (Table 5). […] Carbomers are a commonly used synthetic rheological modifier in personal care products. The formulation below was made by heating the aqueous (A) and oil (B) phases separately to 75-80° C. The oil phase was then poured into the aqueous phase and mixed by a homogenizer at approximately 45° C. The formed oil-in-water emulsion was cooled to room temperature. Triethanolamine and/or diluted sodium hydroxide was used to adjust the final pH to 6.3 or 6.5 (as indicated in the examples below).
# (§3) After dosing, the samples were divided into two separate five gram aliquots. One aliquot was inoculated with 50 μl of a diluted bacterial pool, and the second aliquot was inoculated with 50 μl of a diluted fungal pool as described below. Unpreserved product samples were included as a growth control.
# (§4) For personal care products, a mixed bacterial inoculum was prepared using 24-hour cultures of the test bacteria (Table 6) grown in trypticase soy broth (TSB). For home care products, a mixed bacterial inoculum was prepared using 24-hour cultures of the test bacteria either from Table 6 (full pool) or Table 7 (simplified pool) grown in trypticase soy broth (TSB). Details are disclosed in the home care examples below. Equal volumes of the bacterial test strains were combined and diluted one to ten in phosphate buffer to obtain an inoculum of approximately 5×10^7 to 5×10^8 colony forming units per ml (cfu/ml). The test samples were inoculated with 1% of the mixed bacterial inoculum. For both personal care and home care products, a mixed fungal inoculum was prepared using cell suspensions of the yeast Candida albicans ATCC #10231 and the mold Aspergillus brasiliensis ATCC #16404 in phosphate buffer. Equal volumes of the fungal test strains were combined and diluted one to ten with phosphate buffer to obtain an inoculum of approximately 5×10^6 to 5×10^7 cfu/ml. The test samples were inoculated with 1% of the mixed fungal inoculum.
# (§5) For personal care products, the samples were subjected to two microbial challenges at time zero and inoculated a second time after seven days. For home care products, the samples were subjected to three microbial challenges at time zero and inoculated a second and third time after seven and fourteen days, respectively. The number of microorganisms added to each sample was determined by a standard Most Probable Number (MPN) determination in Trypticase Soy Broth (TSB) for bacteria and Potato Dextrose Broth (PDB) for fungi. Samples were incubated at 25° C. for the test duration of four weeks.
# [2] = system: mixed fungal inoculum: Candida albicans ATCC #10231 and Aspergillus brasiliensis ATCC #16404; test: Challenge test (preservative efficacy), mixed fungal inoculum; format: cell-based
# Experimental: as §1, §2, §3, §4, §5
# [3] = ZenBio Cupric Ion Chelating (CIC) Assay; format: physicochemical; conditions: calculated from a EDTA calibration curve, Pelargonic Acid at 775 μM
# Experimental: The chelation property of the pelargonic acid was measured by using the ZenBio Cupric Ion Chelating (CIC) Assay (Cat #AOX-16). The assay measured the capacity of the pelargonic acid to chelate free cupric ions in solution, thereby inhibiting Cu(II) binding to pyrocatechol violet (PV) for generating a highly colored complex. The absorbance of the Cupric-PV complex was measured at a wavelength of 632 nm. The cupric ion chelating activity was determined as the percent of total PV over the Cu(II) binding. Ethylenediaminetetraacetic acid (EDTA), a well-known chelating agent, was used as a positive control. A series of EDTA with 7 different concentrations from 0 to 1000 μM were prepared and their corresponding absorbance measured and used as the calibration curve (Cupric ion chelating (%) vs. EDTA concentration). Percent cupric ion chelating was determined following the following calculations and Equation 1. The background absorbance value by averaging the absorbance values of the three background wells (no CuSO4 or sample). The average background absorbance was then subtracted from all the sample absorbance values. The maximal absorbance value (Absmax) was determined by averaging the absorbance values of the three wells containing CuSO4, PV and assay buffer. Abstest in Equation 1 is the absorbance of the test sample.
# The calibration curve (Cupric ion chelating (%) vs. EDTA concentration) was fit by using a polynomial curve after log 10 transforming the concentrations (R2>0.98).
# [4] = system: bacteria (Table 6 pool) and fungi; test: Challenge test, overall result (full bacteria pool and fungi); format: cell-based
# Experimental: as §1, §2, §3, §4, §5
# [5] = system: mixed bacterial inoculum for home care (Table 7); test: Challenge test (preservative efficacy), mixed bacterial inoculum, simplified pool (Table 7); format: cell-based, Pseudomonas aeruginosa, Staphylococcus aureus
# Experimental: as §1, §2, §3, §4, §5
# [6] = system: mixed bacterial inoculum (Table 6); test: Challenge test (preservative efficacy), mixed bacterial inoculum, full pool (Table 6); format: cell-based
# Experimental: as §1, §2, §3, §4, §5
# [7] = liquid laundry detergent, pH 7.5, Example 1G, dosed 0.5 wt %
# [8] = liquid laundry detergent, pH 7.5, Example 1G, dosed 1.0 wt %
# [9] = manual dishwashing formulation, pH 5.5, Example 1F, dosed 0.5 wt %
# [10] = manual dishwashing formulation, pH 5.5, Example 1F, dosed 1.0 wt %
# [11] = liquid laundry detergent, pH 7.5, Example 1H, dosed 0.5 wt %
# [12] = liquid laundry detergent, pH 7.5, Example 1H, dosed 1.0 wt %
# [13] = lotion with carbomer, pH 6.3, Example 1A, dosed 0.4 wt %
# [14] = lotion with carbomer, pH 6.5, Example 1I, dosed 0.4 wt %
# [15] = lotion with carbomer, pH 6.5, Example 1I, total dosing 0.8 wt %
# [16] = micellar water, pH 6.0, Example 1B, dosed 0.3 wt %
# [17] = micellar water, pH 6.0, Example 1C, dosed 0.3 wt %
structure (smiles),measurement,setting,value
"OCCOc1ccccc1 [Phenoxyethanol (POE), 2-phenoxyethan-1-ol]",Overall Result,[1]; [7],Fail
same,Overall Result,[1]; [8],Fail
same,Overall Result,[1]; [9],Fail
same,Overall Result,[1]; [10],Fail
same,Fungi growth rating Result,[2]; [7],Fail (growth rating score caused by fungi of more than 2 at days 21-28 of the testing period)
same,Fungi growth rating Result,[2]; [8],Fail (growth rating score caused by fungi of more than 2 at days 21-28 of the testing period)
same,Fungi growth rating Result,[2]; [11],Fail (growth rating score caused by fungi of more than 2 at days 21-28 of the testing period)
same,Fungi growth rating Result,[2]; [12],Fail (growth rating score caused by fungi of more than 2 at days 21-28 of the testing period)
same,Fungi growth rating Result,[2]; [13],Fail (growth rating score caused by fungi of more than 2 at days 21-28 of the testing period)
same,Fungi growth rating Result,[2]; [14],Fail (growth rating score caused by fungi of more than 2 at days 21-28 of the testing period)
same,Fungi growth rating Result,[2]; [15],Pass (growth rating score caused by fungi of 2 or less at days 21-28 of the testing period)
same,Fungi growth rating Result,"[2]; lotion, pH 6.5, Example 4, dosed 0.8 wt %",Pass (growth rating score caused by fungi of 2 or less at days 21-28 of the testing period)
same,Fungi growth rating Result,"[2]; manual dishwash formulation, pH 6.5, Example 4, dosed 0.8 wt %",Fail (growth rating score caused by fungi of more than 2 at days 21-28 of the testing period)
same,Fungi growth rating Result,[2]; [9],Fail (growth rating score caused by fungi of more than 2 at days 21-28 of the testing period)
same,Fungi growth rating Result,[2]; [10],Fail (growth rating score caused by fungi of more than 2 at days 21-28 of the testing period)
same,Fungi growth rating Result,[2]; [16],Fail (growth rating score caused by fungi of more than 2 at days 21-28 of the testing period)
same,Fungi growth rating Result,[2]; [17],Fail (growth rating score caused by fungi of more than 2 at days 21-28 of the testing period)
same,Calculated EDTA equivalent,[3]; listed as Phenoxyethanol,~0 µM
same,Calculated EDTA equivalent,[3]; listed as phenoxyethanol,~ 0 μM
same,Overall Result,[4]; [11],Fail
same,Overall Result,[4]; [12],Fail
same,Overall Result,[4]; [13],Fail
same,Overall Result,[4]; [14],Fail
same,Overall Result,[4]; [15],Pass
same,Overall Result,[4]; [16],Fail
same,Overall Result,[4]; [17],Fail
same,Bacteria growth rating Result,"[5]; liquid laundry detergent, pH 7.5, simplified bacteria pool, Example 1G, dosed 0.5 wt %",Pass (growth rating score caused by bacteria of 1 or less at days 21-28 of the testing period)
same,Bacteria growth rating Result,"[5]; liquid laundry detergent, pH 7.5, simplified bacteria pool, Example 1G, dosed 1.0 wt %",Pass (growth rating score caused by bacteria of 1 or less at days 21-28 of the testing period)
same,Bacteria growth rating Result,"[5]; manual dishwashing formulation, pH 5.5, simplified bacteria pool, Example 1F, dosed 0.5 wt %",Fail (growth rating score caused by bacteria of 2 or more at days 21-28 of the testing period)
same,Bacteria growth rating Result,"[5]; manual dishwashing formulation, pH 5.5, simplified bacteria pool, Example 1F, dosed 1.0 wt %",Fail (growth rating score caused by bacteria of 2 or more at days 21-28 of the testing period)
same,Bacteria growth rating Result,"[6]; liquid laundry detergent, pH 7.5, full bacteria pool, Example 1H, dosed 0.5 wt %",Fail (growth rating score caused by bacteria of 2 or more at days 21-28 of the testing period)
same,Bacteria growth rating Result,"[6]; liquid laundry detergent, pH 7.5, full bacteria pool, Example 1H, dosed 1.0 wt %",Pass (growth rating score caused by bacteria of 1 or less at days 21-28 of the testing period)
same,Bacteria growth rating Result,[6]; [13],Fail (growth rating score caused by bacteria of 2 or more at days 21-28 of the testing period)
same,Bacteria growth rating Result,"[6]; lotion with carbomer, pH 6.3, Example 1D, dosed 0.4 wt %",Fail (growth rating score caused by bacteria of 2 or more at days 21-28 of the testing period)
same,Bacteria growth rating Result,"[6]; lotion with carbomer, pH 6.3, Example 1D, dosed 0.8 wt %",Pass (growth rating score caused by bacteria of 1 or less at days 21-28 of the testing period)
same,Bacteria growth rating Result,[6]; [14],Fail (growth rating score caused by bacteria of 2 or more at days 21-28 of the testing period)
same,Bacteria growth rating Result,[6]; [15],Pass (growth rating score caused by bacteria of 1 or less at days 21-28 of the testing period)
same,Bacteria growth rating Result,"[6]; micellar water, pH 6.0, bacteria inoculation ~10^7 cfu/ml, Example 1B, dosed 0.3 wt %",Pass (growth rating score caused by bacteria of 1 or less at days 21-28 of the testing period)
same,Bacteria growth rating Result,"[6]; micellar water, pH 6.0, bacteria inoculation ~10^8 cfu/ml, Example 1C, dosed 0.3 wt %",Fail (growth rating score caused by bacteria of 2 or more at days 21-28 of the testing period)
